Experiment [1] is described as follows: [Ca2+] antagonistic activity was measured with isolated depolarized guinea pig taenia cecum.(test 1). The format is functional, tissue-based, Cavia porcellus, Caecum.
A short description of experiment [2]: [Ca2+] antagonistic activity was measured with isolated depolarized guinea pig taenia cecum.(test 2). The format is functional, tissue-based, Cavia porcellus, Caecum.
A short description of experiment [3]: [Ca2+] antagonistic activity was measured with isolated depolarized guinea pig taenia cecum. The format is functional, tissue-based, Cavia porcellus, Caecum.
The nature of experiment [4]: Displacement of [3H]semotiadil from L-type calcium channel of rabbit skeletal muscle. It counts as tissue-based, Oryctolagus cuniculus, Muscle tissue.

Molecules are shown by their SMILES.

In the case of `COc1ccc(OCCCN(C)CCOc2cccc(N=[N+]=[N-])c2)c(C2Sc3ccccc3N(C)C2=O)c1` (centres undefined), the half-inhibitory concentration (IC50) in experiment [1] was determined as 427 nM; in experiment [2], 1380 nM.

`COc1ccc(OCCCN(C)CCOc2ccc3c(c2)OCO3)c([C@H]2Sc3ccccc3N(CCN=[N+]=[N-])C2=O)c1` had a half-inhibitory concentration (IC50) in experiment [3] of 275 nM.

Turning to `COc1ccc(OCCCN(C)CCOc2cccc(N=[N+]=[N-])c2)c([C@H]2Sc3ccccc3N(C)C2=O)c1`, the inhibitory constant (Ki) in experiment [4] amounted to 2670 nM. This compound displayed a half-maximal inhibitory concentration (IC50) in experiment [3] of 654 nM.

Turning to `COc1ccc(OCCCN(C)CCOc2ccc3c(c2)OCO3)c([C@H]2Sc3ccccc3N(C)C2=O)c1` [SEMOTIADIL], the concentration for half-maximal inhibition (IC50) is 42.7 nM in experiment [1] and 54.5 nM in experiment [2]. For the same compound, in experiment [4], the Ki was determined as 121 nM.

In turn, `COc1ccc(OCCCN(C)CCOc2ccc3c(c2)OCO3)c([C@H]2Sc3ccccc3N(CCCCN=[N+]=[N-])C2=O)c1` had a 50% inhibitory concentration (IC50) in experiment [3] of 537 nM.
